Where a name gives a salt, the structure may show the parent alone. Read-outs that look alike come from different tables or passages of the source.
Key:
HTT mRNA = assay: RT-qPCR splicing assay, HTT mRNA canonical (CJ) and alternative (AJ) junction; format: cell-based, human; conditions: Homo sapiens; for AC50: HTT alternative junction mRNA, read-out: HTT AJ (increase in AJ mRNA, AC50)
Summary of the method: (§1)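 Both isoforms, CJ and AJ, read by qPCR from crude lysates of treated A673 or K562 cells; 24 h, 37 °C, maximum 10 uM. Normalization: housekeeper ΔCt, then DMSO ΔΔCt.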

SMN2 mRNA = assay: RT-qPCR splicing assay, SMN2 mRNA; format: cell-based, human; conditions: Homo sapiens, canonical junction qPCR panel, Table 4; read-out: SMN2 IC50 (decrease in CJ mRNA levels)
Summary of the method: as §1

MYB = assay: HiBiT protein abundance assay, MYB (K562 HiBiT knock-in); format: cell-based, human; conditions: HiBiT knock-in K562 cells, 24 hours, top dose 10 μM
Summary of the method: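 Tagged-protein levels were measured as HiBiT/LgBiT luminescence in lysed K562 knock-in cells exposed to serially diluted compound (up to 10 μM final) for 24 hours. A four-parameter logistic regression of control-normalized signal yielded the IC50.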

K562 cells = assay: Cell Titer Glo 2.0 cell viability (toxicity) assay, K562; conditions: 500 cells/well, 72 hours
[1] = HTT canonical junction mRNA, RT-qPCR, read-out: HTT CJ (decrease in CJ mRNA levels, IC50)
[2] = canonical junction qPCR panel, Table 4, read-out: HTT IC50 (decrease in CJ mRNA levels)

Row | Compound | IC50 (HTT mRNA; [1]) | IC50 (HTT mRNA; [2]) | IC50 (SMN2 mRNA) | IC50 (MYB) | AC50 (HTT mRNA; RT-qPCR) | Effect of Exemplary Compounds on Cell Viability, K562 (K562 cells)
1 | C[C@@H]1CN(c2ccc3nc(-c4cc5cn(C)nc5c(F)c4O)ncc3c2)C[C@H](C)N1 [Compound 743, 5-{6-[(3R,5S)-3,5-dimethylpiperazin-1-yl]quinazolin-2-yl}-7-fluoro-2-methylindazol-6-ol] | > 10000 nM | > 10000 nM | 1000 to 10000 nM | 1000 to 10000 nM | 1000 to 10000 nM | C (C represents 1000-9999 nM)
2 | CN[C@@H]1CCN(c2cc3c(Cl)cc(-c4cc5cn(C)nc5c(C)c4O)nc3cc2C)C1 [Compound 748, 5-{4-chloro-7-methyl-6-[(3R)-3-(methylamino)pyrrolidin-1-yl]quinolin-2-yl}-2,7-dimethylindazol-6-ol] | > 10000 nM | > 10000 nM | 100 to 1000 nM | 100 to 1000 nM | > 10000 nM | B (B represents 100-1000 nM)
3 | CN[C@H]1CCN(c2cc3c(Cl)cc(-c4cc5cn(C)nc5c(C)c4O)nc3cc2C)C1 [Compound 749, 5-{4-chloro-7-methyl-6-[(3S)-3-(methylamino)pyrrolidin-1-yl]quinolin-2-yl}-2,7-dimethylindazol-6-ol] | > 10000 nM | > 10000 nM | < 100 nM | 100 to 1000 nM | > 10000 nM | B (B represents 100-1000 nM)
4 | C[C@@H]1CN(c2ccc3nc(-c4cc5cn(C)nc5cc4O)ncc3c2)C[C@H](C)N1 [Compound 751, 5-{6-[(3R,5S)-3,5-dimethylpiperazin-1-yl]quinazolin-2-yl}-2-methylindazol-6-ol hydrochloride] | > 10000 nM | > 10000 nM | < 100 nM | 100 to 1000 nM | > 10000 nM | B (B represents 100-1000 nM)
5 | C[C@H]1CN(c2ccc3nc(-c4cc5cn(C)nc5cc4O)ncc3c2)C[C@H](C)N1 [Compound 752, 5-{6-[(3S,5S)-3,5-dimethylpiperazin-1-yl]quinazolin-2-yl}-2-methylindazol-6-ol] | 1000 to 10000 nM | 1000 to 10000 nM | < 100 nM | < 100 nM | 1000 to 10000 nM | B (B represents 100-1000 nM)
6 | C[C@@H]1CN(c2ccc3nc(-c4cc5cn(C)nc5cc4O)ncc3c2)C[C@@H](C)N1 [Compound 753, 5-{6-[(3R,5R)-3,5-dimethylpiperazin-1-yl]quinazolin-2-yl}-2-methylindazol-6-ol] | 1000 to 10000 nM | 1000 to 10000 nM | < 100 nM | 100 to 1000 nM | 1000 to 10000 nM | A (A represents <100 nM)

More lines, main results first:

Row | IC50 (HTT mRNA; [1]) | IC50 (HTT mRNA; [2]) | IC50 (SMN2 mRNA) | IC50 (MYB) | Compound | AC50 (HTT mRNA; RT-qPCR) | Effect of Exemplary Compounds on Cell Viability, K562 (K562 cells)
7 | < 100 nM | < 100 nM | < 100 nM | < 100 nM | C[C@H]1CN(c2ccc3nc(-c4cc5cn(C)nc5c(F)c4O)ncc3c2)C[C@H](C)N1 [Compound 744, 5-{6-[(3S,5S)-3,5-dimethylpiperazin-1-yl]quinazolin-2-yl}-7-fluoro-2-methylindazol-6-ol] | < 100 nM | A (A represents <100 nM)
8 | 100 to 1000 nM | 100 to 1000 nM | < 100 nM | < 100 nM | C[C@@H]1CN(c2ccc3nc(-c4cc5cn(C)nc5c(F)c4O)ncc3c2)C[C@@H](C)N1 [Compound 745, 5-{6-[(3R,5R)-3,5-dimethylpiperazin-1-yl]quinazolin-2-yl}-7-fluoro-2-methylindazol-6-ol] | 100 to 1000 nM | A (A represents <100 nM)
9 | 100 to 1000 nM | 100 to 1000 nM | < 100 nM | 100 to 1000 nM | Cn1cc2cc(-c3ncc4cc(N5CCC(N6CCC6)CC5)ccc4n3)c(O)c(F)c2n1 [Compound 750, 5-{6-[4-(azetidin-1-yl)piperidin-1-yl]quinazolin-2-yl}-7-fluoro-2-methylindazol-6-ol] | 100 to 1000 nM | B (B represents 100-1000 nM)
10 | 100 to 1000 nM | 100 to 1000 nM | < 100 nM | 100 to 1000 nM | CCN(CC)C1CCN(c2ccc3nc(-c4cc5cn(C)nc5c(F)c4O)ncc3c2)CC1 [Compound 756, 5-{6-[4-(diethylamino)piperidin-1-yl]quinazolin-2-yl}-7-fluoro-2-methylindazol-6-ol] | 100 to 1000 nM | B (B represents 100-1000 nM)

— patent US20250092065A1, “2-(INDAZOL-5-YL)-6-(PIPERIDIN-4-YL)-1,7-NAPHTHYRIDINE DERIVATIVES AND RELATED COMPOUNDS AS MODULATORS FOR SPLICING NUCLEIC ACIDS AND FOR THE TREATMENT OF PROLIFERATIVE DISEASES” (REMIX THERAPEUTICS INC., priority 2022, published 2025)
